Source: US7560252B2, “Borrelidin-producing polyketide synthase and its use” (priority 2002, dated 2009)
Values after ≈ are worked out from the molar mass of the structure shown.

Assays:
S. albus J1074/pEM4A = test: soaked disk bioassay, control strain; format: cell-based, Streptomyces albus J1074; settings: disks with borrelidin at 100 & 200 μg/ml, Bennett's agar, overnight at 30° C.
From the text: The self-resistance of S. parvulus strains to borrelidin is most probably due to the product of borO, which encodes a threonyl tRNA synthetase homologue. Threonyl-tRNA synthetase is the molecular target of borrelidin in sensitive strains (Paetz & Ness, 1973). It is predicted that BorO is resistant to the action of borrelidin, and acts to produce threonyl-tRNAs in cells that make borrelidin, effectively complementing the normal threonyl-tRNA which are inhibited. To verify this hypothesis borO was amplified by PCR and cloned in to the expression vector pEM4A, which puts borO under the control of the strong constitutive promoter ermE* (example 26). The resulting vector pborOR was then transformed into the borrelidin-sensitive strain Streptomyces albus J1074 (Chater & Wilde, 1980).
Resistance to borrelidin was assayed on Bennett's agar containing apramycin at 25 μg/ml. Spores of S. albus J1074/pborOR and the control S. albus J1074/pEM4A were spread onto plates and then disks containing borrelidin at 100 & 200 μg/ml were laid upon the lawn of spores and incubated overnight at 30° C.

capillary tube formation = settings: rat aorta matrix culture model; cited from earlier work
[1] = test system: human umbilical vein endothelial cells (HUVEC); settings: cited from earlier work
protein synthesis = settings: cited from earlier work
WiDr cells = settings: 1.8 mg/kg by intraperitoneal injection; higher degree than TNP-470; cited from earlier work
B16-BL6 melanoma cells = settings: same dosage (1.8 mg/kg); cited from earlier work
[2] = test system: WiDr cell lines of human colon cancer; settings: JP 9-227,549 and JP 8-173,167; cited from earlier work
[3] = test system: PC-3 cell lines of human prostate cancer; settings: JP 9-227,549 and JP 8-173,167; cited from earlier work
[4] = test system: Lewis lung adenocarcinoma; settings: cited from earlier work
[5] = test system: haploid and diploid cells; settings: at concentrations that do not affect gross protein biosynthesis; cited from earlier work
caspase-3 = settings: cited from earlier work
caspase-8 = settings: cited from earlier work
[6] = test system: endothelial cell proliferation and endothelial capillary formation; settings: with respect to borrelidin; cited from earlier work
[7] = test system: mouse colon adenocarcinoma cells; settings: subtoxic dose; cited from earlier work

## C[C@@H]1C[C@H](C)C[C@H](C)[C@@H](O)CC(=O)O[C@H]([C@@H]2CCC[C@H]2C(=O)O)C/C=C/C=C(/C#N)[C@H](O)[C@@H](C)C1 [Borrelidin]
S. albus J1074/pEM4A
  haloes of growth inhibition: Haloes indicating inhibition of growth were observed
Capillary tube formation
  IC50: 0.8 nM
  IC50 capillary tube formation: 0.4 ng/mL (≈ 0.817 nM)
[1]; cell growth assay
  IC50 anti-proliferative activity towards HUVEC: 6 ng/mL (≈ 12.3 nM)
[1]; measured in the same medium
  anti-proliferative activity weaker than the anti-angiogenesis activity: 15 fold
Protein synthesis; 0.4 ng/ml versus 20 ng/ml
  IC50 for anti-angiogenesis activity lower than for inhibition of protein synthesis: 50 fold
Protein synthesis; cultured rat cells
  IC50 inhibition of protein synthesis: 20 ng/mL
WiDr cells
  increment of vascular volume induced by WiDr cells: significantly reduce the increment of vascular volume
B16-BL6 melanoma cells
  inhibition of the formation of spontaneous lung metastases: effective
[2]
  effectiveness against WiDr cell lines: effective
[3]
  effectiveness against PC-3 cell lines: effective
[4]; after removal of the primary tumour
  propagation of metastatic nodules: weakly inhibited
[5]
  cell cycle arrest in late G1 phase: arrests both haploid and diploid cells in late G1 phase
caspase-3
  caspase-3 activation: activate
caspase-8
  caspase-8 activation: activate

## CC1CC(C)CC(C)C(O)C(C#N)=CC=CCC(C2CCCC2C(=O)OCCc2ccccn2)OC(=O)CC(O)C(C)C1 (stereo not drawn) [borrelidin-(2-pyridyl)-ethyl ester]
[6]
  selectivity index, capillary formation inhibitory activity versus cell proliferation: 7.5 fold

## CC1CC(C)CC(C)C(O)CC(=O)OC(C2CCCC2C(=O)NCc2cccnc2)C(C#N)=CC=CCC(O)C(C)C1 (stereo not drawn) [borrelidin-(3-picolylamide)]
[4]; rats, intraperitoneal and per os administration at subtoxic doses
  increase of micrometastases: inhibit very considerably
[7]
  metastasis-forming ability of cells transplanted into mouse spleen: considerably decreased

## C[C@@H]1C[C@H](C)C[C@H](C)[C@@H](O)CC(=O)O[C@H]([C@@H]2CCC[C@H]2C(=O)NCCN2CCOCC2)C/C=C/C=C(/C#N)[C@H](O)[C@@H](C)C1 [borrelidin-morpholinoethyl amide]
[6]
  selectivity index, capillary formation inhibitory activity versus cell proliferation: 6 fold

## C[C@@H]1C[C@H](C)C[C@H](C)[C@@H](O)CC(=O)O[C@H]([C@@H]2CCC[C@H]2C(=O)OCCN2CCOCC2)C/C=C/C=C(/C#N)[C@H](O)[C@@H](C)C1 [borrelidin-morpholinoethyl ester]
[6]
  selectivity index, capillary formation inhibitory activity versus cell proliferation: 60 fold

## borrelidin-amide
[6]
  selectivity index, capillary formation inhibitory activity versus cell proliferation: 37 fold
